The structures appear in SMILES notation.

The test system of series [1] is LPS-induced acute lung injury. Nature of the series: LPS-induced acute lung injury (ALI) in mice. Format: in vivo. Particulars: LPS-treated mice, co-treatment.
For series [2], the system named is intracellular calcium in dHL-60 cells. Nature of the series: Fluo-4 calcium assay. Format: cell-based, human. As for the experimental part: Human leukemia line (HL-60) cells were differentiated (dHL-60) to neutrophil-like cells in the culture medium with the addition of 1.3% DMSO (Sigma) for 5 days in a humidified atmosphere at 37° C. without changing the medium. dHL-60 cells (2×10^5 cells/mL) were loaded with 5 μM fluo-4 AM for 45 minutes and washed three times with warmed modified (37° C.) HBSS buffer (137.93 mM NaCl, 5.33 mM KCl, 2 mM CaCl2), 1 mM MgSO4, 2.38 mM HEPES, 5.5 mM glucose, pH to 7.4). The cells were seeded on black-walled 96-well plates and then treated with vehicle (0.1% DMSO), ionomycin (5 μM; positive control) or PLAG (100 μg/mL) just before measurement. Baseline fluorescence was measured before treatment, and fluorescence was read every 20 s for 700 s using an excitation wavelength of 494 nm, an emission wavelength of 516 nm in a FlexStation 3 microplate reader (Molecular Devices). Fluorescence values were reported as F/Fo according to the calculation: [ΔF=(494 nm)f/(516 nm)f−(494 nm)0/(516 nm)0]. For studies in 0 mM external calcium, the cells were loaded as mentioned earlier. After being loaded, the cells were washed four times with calcium-free HBSS. The remainder of the study was carried out in calcium-free HBSS.
(§1) HL-60 cells were differentiated (dHL-60) to neutrophil-like cells in the culture medium with the addition of 1.3% DMSO (Sigma) for 5 days in a humidified atmosphere at 37° C. without changing the medium. dHL-60 cells (2×10^5 cells/mL) were loaded with 5 μM fluo-4 AM for 45 minutes and washed three times with warmed modified (37° C.) HBSS buffer (137.93 mM NaCl, 5.33 mM KCl, 2 mM CaCl2, 1 mM MgSO4, 2.38 mM HEPES, 5.5 mM glucose, pH to 7.4). […] Baseline fluorescence was measured before treatment, and fluorescence was read every 20 seconds for 700 seconds using an excitation wavelength of 494 nm, an emission wavelength of 516 nm in a FlexStation 3 microplate reader (Molecular Devices). Fluorescence values were reported as F/Fo according to the calculation: [ΔF=(494 nm)f/(516 nm)f−(494 nm)0/(516 nm)0]. […]
as §1, with “s” for “seconds”, “Devices).” for “Devices). Fluorescence values were reported as F/Fo according to the calculation: [ΔF=(494 nm)f/(516 nm)f−(494 nm)0/(516 nm)0].”

For series [3], the system named is citrullinated histone H3 in dHL-60 cells. Nature of the series: Histone H3 citrullination, western blot. Format: cell-based, human. Particulars: time-dependent. As for the experimental part:
(§2) dHL-60 cells were lysed on ice for 30 minutes in RIPA buffer composed of 50 mM Tris-HCl (pH 7.4), 150 mM NaCl, 2 mM EDTA, 1% NP-40, 0.5% sodium deoxycholate, 0.1% SDS, 1 mM phenylmethylsulfonyl fluoride (PMSF), 10 mM sodium fluoride, 2 mM sodium pyrophosphate, 10 mM β-glycerophosphate, 10 mM sodium orthovanadate. The lysates were centrifuged at 13,000 rpm for 20 minutes at 4° C. and protein concentrations were determined using the Bradford assay (Bio-Rad Laboratories). Denatured samples were mixed with a 5×SDS-PAGE loading buffer and heated to 100° C. for 15 min. The samples were separated on the 10% of SDS-PAGE gel and transferred to polyvinylidene difluoride (PVDF) membranes (Merck Millipore Corporation, MA, USA). Membranes were blocked with 5% non-fat milk in PBS (10 mM Tris-HCl, pH7.5, 150 mM NaCl) for 1 h and probed with primary antibodies against histone H3 (citrulline R2+R8+R17) from abcam (USA) and β-actin from cell signaling (USA) for overnight at 4° C. The blots were washed and incubated with appropriate secondary antibodies and visualized using Pierce™ ECL Western Blotting Substrate (Thermo Scientific).
Background: In western blotting, separated proteins are transferred to a membrane and probed.

In series [4] the test system is gemcitabine-induced neutrophil extravasation. Nature of the series: Gemcitabine-induced neutropenia mice model. In kind it is in vivo. Here is the method: Male BALB/c mice were randomly divided into 3 groups; normal control group (n=5), gemcitabine only group (n=5) and gemcitabine with PLAG group (n=5). The mice were intraperitoneally (i.p.) injected with 50 mg/kg gemcitabine to induce neutropenia. PLAG was diluted with phosphate-buffered saline (PBS) and then orally administrated at a dose of 50 or 250 mg/kg/day. The normal control group was administered PBS only during the experiment. The whole blood was collected from the orbital sinuses using capillary tubes (Kimble Chase Life Science and Research Products LLC, FL, USA) and collection tubes containing K3E-K3EDTA (Greiner Bio-One International, Germany). To obtain peritoneal cells, 5 ml of cold PBS was injected to the left side of the peritoneal wall using a 5 mL syringe, and the fluid was aspirated from the peritoneum. The collected cells were counted by complete blood count (CBC) analysis using Mindray BC-5300 auto-hematology analyzer (Shenzhen Mindray Biomedical Electronics, China). To establish a 4T1 tumor-bearing mice model, the murine 4T1 mammary carcinoma cells (1×10^5) were subcutaneously injected on the right side of the abdomen. On the 10th day after tumor injection, the mice were intraperitoneally (i.p.) injected with 50 mg/kg gemcitabine, and the next day the whole blood was collected from the orbital sinuses as mentioned above before sacrificing the animals to obtain different organs of the body for RT-PCR.
PLAG inhibits gemcitabine-induced neutrophil extravasation into the peritoneum by down-regulating the expression of adhesion molecules in normal BALB/c mice. Male BALB/c mice of 8-10 weeks of age were orally administrated with 50 or 250 mg/kg of PLAG and then were intraperitoneally injected with 50 mg/kg gemcitabine. After 24 h, blood samples were collected by retro-orbital bleeding, and the number of blood neutrophils was determined by CBC analysis. Each group contains five mice. The population of blood neutrophils was analyzed by flow cytometry. Red cell-lysed whole blood was stained with FITC-conjugated anti-Ly6G and PE-Cy7-conjugated anti-CD11b antibodies to determine the circulating neutrophil population. Ly6G+/CD11b+ cells were further stained with APC-conjugated anti-L-selectin and APC-conjugated anti-LFA-1 antibodies and were analyzed by flow cytometry to determine the expression of adhesion molecules.
The mice were intraperitoneally (i.p.) injected with 50 mg/kg gemcitabine to induce neutropenia. PLAG was diluted with phosphate-buffered saline (PBS) and then orally administrated at a dose of 50 or 250 mg/kg/day. The normal control group was administered PBS only during the experiment. At 15 h after gemcitabine treatment, the whole blood was collected from the orbital sinuses using capillary tubes (Kimble Chase Life Science and Research Products LLC, FL, USA) and collection tubes containing K3E-K3EDTA (Greiner Bio-One International, Kremsmünster, Austria). To obtain peritoneal cells, 5 ml of cold PBS was injected to the left side of the peritoneal wall using a 5 mL syringe, and the fluid was aspirated from the peritoneum. The collected cells were counted by complete blood count (CBC) analysis using Mindray BC-5300 auto-hematology analyzer (Shenzhen Mindray Biomedical Electronics, Guangdong Sheng, China).
To establish a 4T1 tumor-bearing mice model, the murine 4T1 mammary carcinoma cells (1×105) were subcutaneously injected on the right side of the abdomen. On the 10th day after tumor injection, the mice were intraperitoneally (i.p.) injected with 50 mg/kg gemcitabine, and the next day the whole blood was collected from the orbital sinuses as mentioned above before sacrificing the animals to obtain different organs of the body.

Series [5] relates to ERK, p38 MAPK, JNK in THP-1 cells. Nature of the series: Gemcitabine-induced phosphorylation of ERK, p38 MAPK, JNK, western blot. Format: cell-based, human. The following applies: inhibitor of NADPH oxidase. As for the experimental part: as §2, with “Total” for “dHL-60”, “orthovanadate. Membrane-and-cytoplasmic protein fractions of cultured cells were obtained with Mem-PER Plus Membrane Protein Extraction Kit (Thermo Scientific, MA, USA) according to the manufacturer's instructions.” for “orthovanadate.”, “ERK1/2, phospho-ERK1/2, P38, phospho-P38, SAPK/JNK, phospho-SAPK/JNK, Na, K-ATPase, α-Tubulin,” for “histone H3 (citrulline R2+R8+R17) from abcam (USA)”, “Cell Signaling Technology (MA, USA), Rac1 from Merck Millipore Corporation), p47phox and phospho-p47phox from Invitrogen, adenosine receptor A1 from Abcam, β arrestin-1 from Santa Cruz Technology” for “cell signaling (USA)”, “Pierce” for “Pierce™”

Where [6] appears, read: normal BALB/c mice, 15 hours after gemcitabine 50 mg/kg i.p.

Regarding `CCCCCCCCCCCCCCCC(=O)O` [PA, palmitic acid, reference compound], the “number of neutrophils in BALF” value in series [1] is on record as “no effect”.
For the molecule `C[C@H](CCC(=O)O)C[C@H](C)C[C@H](C)C(=O)/C=C(\O)[C@H](C)C[C@H](C)C/C=C/[C@@H](C)[C@@H](O)[C@@H](C)[C@@H](O)C[C@@H]1CC[C@@](C)([C@H]2CC[C@@](C)([C@@H](C)O)O2)O1` [ionomycin, reference compound], the “cytosolic calcium of dHL-60 cells” value in series [2] (PLAG 100 μg/mL, ionomycin 5 μM) is “increased”. Also, the “histone H3 citrullination” value in series [3] was “induced”.
In the case of `Nc1ccn([C@@H]2O[C@H](CO)[C@@H](O)C2(F)F)c(=O)n1` [gemcitabine, reference compound], the “mRNA expression of MIP-2 in tissues” value in series [4] (4T1 tumor-bearing mice, gemcitabine 50 mg/kg i.p.) was “increases”. Moreover, the “migration of circulating neutrophils into the peritoneal cavity” value in series [4] (4T1 tumor-bearing mice, one day after gemcitabine 50 mg/kg i.p.) is “induced the migration”. In series [4] (setting [6]), the circulating neutrophils entry is listed as “significant reduction” and the “neutrophils in the peritoneal cavity” value is on record as “increase”.
As to `COc1ccc2c(c1)CC[C@@H]1[C@@H]2CC[C@]2(C)[C@@H](NCCCCCCN3C(=O)C=CC3=O)CC[C@@H]12` [U73122, reference compound], the “PLAG-induced intracellular calcium increase” value in series [2] (PLC inhibitor, dose-dependent) is “inhibited”.
For `CCCCC/C=C\C/C=C\CCCCCCCC(=O)O` [LA, linoleic acid, reference compound], the “number of neutrophils in BALF” value in series [1] is given as “no effect”.
Consider `c1ccc2c(c1)[I+]c1ccccc1-2` [DPI, diphenyleneiodonium, reference compound], for which the “gemcitabine-induced phosphorylation of ERK, p38 MAPK and JNK” value in series [5] is reported as “dose-dependently decreased”.
`CCCCCC=CCC=CCCCCCCCC(=O)OC(CO)CO` [HLH, hydroxyl linoleic hydroxyl glycerol, reference compound]: the “number of neutrophils in BALF” value in series [1] was “no effect”.

Values taken from patent US20220339135A1, “COMPOSITIONS AND METHODS FOR MODULATING AN INFLAMMATORY RESPONSE” (Enzychem Lifesciences Corporation, priority 2019, published 2022).
